Laboratory results as given in paper PMC6466835 (ACS Medicinal Chemistry Letters, 2019).

Tests used:
[1] = test system: supercoiled plasmid pBR322; test: DNA cleavage assay; type: biochemical
[2] = test system: double-stranded oligodeoxynucleotide (dsDNA); test: ESI-MS analysis of DNA alkylation; type: biochemical; settings: 50 μM compound, 2 μM dsDNA
[3] = Parallel artificial membrane permeation assay; type: in vitro ADME; settings: incubation for 1 h, PBS pH 7.4
[4] = test system: BxPC-3 pancreatic carcinoma cells; test: MTT cytotoxicity assay, BxPC-3; type: cell-based; settings: BxPC-3 cells, L-1 versus D-1
[5] = 2 h at 37 °C, highest concentration 50 μM

SMILES | DNA cleavage activity ([1]; 2 h at 37 °C, 5 and 50 μM) | DNA modifications detected by ESI-MS ([2]; 2 h at 37 °C) | DNA modifications detected by ESI-MS ([2]; 18 h at 37 °C) | DNA cleavage activity [1, 5] | PAMPA permeation, in words [3] | DNA cleavage activity ([1]; 18 h at 37 °C, 5 and 50 μM) | further results
CCCCN1CCCC(Cl)C1 (stereo not shown) [Compound 1] | inactive | exclusively the signal corresponding to the unreacted DNA substrate | formation of adducts and of abasic lesions | – | – | – | –
CCCCN1CC(Cl)CC(C)(C)C1 (stereo not shown) [Compound 2] | – | additional peaks corresponding to 3-chloropiperidine–DNA adducts were detected | formation of adducts and of abasic lesions | caused the conversion of supercoiled DNA into the OC form | barely detected in the acceptor compartment | – | –
CC1(C)CC(Cl)CN(Cc2ccccc2)C1 (stereo not shown) [Compound 3] | – | – | – | caused the conversion of supercoiled DNA into the OC form | barely detected in the acceptor compartment | – | –
CCCCN1CCC[C@H](Cl)C1 [D-1] | – | – | – | – | – | inactive even after prolonged incubation | –
CCCCN1CCC[C@@H](Cl)C1 [L-1] | – | – | – | – | – | more active than the racemate 1 | eudismic ratio [4]: ~40
O=C(O)CCCc1ccc(N(CCCl)CCCl)cc1 [chlorambucil, reference compound] | inactive at all concentrations | – | – | – | – | – | –
